Data on four compounds can be found in patent publication US12138299B2, “Aldehyde dehydrogenase producing bacteria and methods of using same” (Children's Hospital Medical Center, priority 2021, dated 2024).

One test has as its system SFB. The experiment in a line: SFB DNA in feces by qPCR. It is filed as in vivo, mice.
Test [1] relates to C. rodentium. The experiment in a line: C. rodentium infection, CFUs in stool. The format is in vivo, mice. The following applies: day 6 p.i. The procedure:
(§1) METHOD DETAILS C. rodentium infections Mice were orally infected with 109 colony-forming units (CFUs) of C. rodentium suspended in sterile PBS. Post-infection CFUs were measured in stool homogenized in 500 μl PBS in a Tissue Lyser II at 30 Hz for 3 min. Homogenates were serially diluted 10-fold on MacConkey agar (BD) and CFUs were counted after 16 hr incubation at 37° C., normalized to fecal weight. For RA studies, mice were orally gavaged with 300 μg RA or vehicle (DMSO) in 100 μl corn oil q.d. 5 days prior to and during the infection. For RAR inhibitor (RARi) studies, 400 μg BMS493 (Torcis Bioscience) suspended in 10% DMSO/corn oil was administered to mice via oral gavage q.o.d. over 6 days pre-infection and 6 days post-infection. For Aldh1a2 inhibition, mice were orally gavaged with 400 mg/kg of WIN 18446 (Cayman Chemical) or vehicle (DMSO) in 100 μl corn oil for 8 days q.o.d.

Test [2] concerns C. rodentium. The experiment in a line: C. rodentium in vitro culture, bacterial density (OD600). The format is cell-based, Citrobacter rodentium. The following applies: 1 nM-10 μM RA.
The next test relates to mammalian ALDH. The experiment in a line: Aldehyde dehydrogenase activity in mouse tissues. To be noted: liver of mice treated with WIN18446, 400 mg/kg oral gavage q.o.d. 8 days. The format is in vivo. The procedure: as §1, with “For Aldh1a2 inhibition, mice were orally gavaged with 400 mg/kg of WIN 18446 (Cayman Chemical) or vehicle (DMSO) in 100 μl corn oil for 8 days q.o.d.” left out
Aldehyde dehydrogenase activity Samples were homogenized in ice-cold ALDH assay buffer (Sigma, MAK082) for 3 min at 30 Hz and spun down at 13,000×g for 10 min. ALDH activity was measured according to manufacturer's instructions (Sigma, MAK082). Briefly, 50 μl of supernatants with equal protein concentrations determined using Pierce BCA Protein Assay Kit (Thermo Scientific) were combined with ALDH substrate and acetaldehyde in 96-well plates. […] Enzymatic activity was calculated as a function of amount NADH generated over time.

The next test relates to Saa1/2. The experiment in a line: Saa1/2 mRNA expression in intestinal organoids. The format is cell-based, Murine. The following applies: 1 μM WIN 18446. The procedure:
Intestinal Organoids Murine organoids were generated from ileal IECs isolated from male WT C57BL/6J mice as previously described (Woo et al., 2019; Wu et al., 2020). Dissected terminal ileums (12 cm) were opened longitudinally, scraped to remove intestinal contents and outer cells, washed repeatedly in ice-cold PBS, and cut into 1 cm pieces. Ileum pieces were incubated in Chelation Buffer (2 mM EDTA in PBS) for 30 min at 4° C. with rotation. Tissues were subsequently transferred into new tubes containing Shaking Buffer (PBS, 43.3 mM sucrose, 54.9 mM sorbitol) and gently shaken by hand for 2-4 mins. Ileal crypts were resuspended and plated in Matrigel (Corning) overlaid with 500 μl organoid culture media (60% Advanced DMEM/F12 media supplemented with 10 mM HEPES, 2 mM […], 40% L-WRN conditioned media, 1×N2 supplement, 1×B27 supplement, 50 ng/mL murine EGF, and 10 μM Y-27632 ROCK inhibitor). Culture media was refreshed every 3-4 days. Organoid cultures were treated with 1 μM Aldh1a2 inhibitor WIN 18446 (Cayman Chemical) for 12 hours and then stimulated with 100 μl of SFB contents at 150 mg/ml PBS for 24 hours. For bacterial culture treatments in organoids, 100 μl of liquid cultures were directly added to organoids containing 1 μM retinol for 24 hours. After incubation, organoids were washed 3 times in PBS and lysed using the RNeasy kit (Qiagen).

Test [3] has as its system downstream gene expression. The test is described as follows: Relative mRNA expression in liver of WIN18446-treated mice. To be noted: mice treated with WIN18446. The format is in vivo. The procedure: as §1
Another test relates to bcALDH1A1. The experiment in a line: Expression of ALDH by B. cereus cultured -/+ ROL. To be noted: B. cereus cultured with retinol.

Regarding `CC1(C)CC=C(C#Cc2ccccc2)c2cc(/C=C/c3ccc(C(=O)O)cc3)ccc21` [BMS493], in the test with SFB (RARi (BMS493) treatment, 400 μg oral gavage q.o.d.), the “SFB colonization (SFB DNA in feces)” value is on record as “did not alter SFB colonization”. Also, the “C. rodentium pathogen levels (CFUs in stool)” value in the test on C. rodentium [1] (GF mice treated with RARi) was “largely unaffected”. Further, the “Protective effect of SFB against C. rodentium (CFUs in stool)” value in the test on C. rodentium [1] (SFB-colonized mice treated with RARi) is recorded as “abrogated the protective effect of SFB against C. rodentium”.
For `CC1=C(/C=C/C(C)=C/C=C/C(C)=C/C(=O)O)C(C)(C)CCC1` [RA, all-trans retinoic acid], the “C. rodentium growth and viability” value in the test on C. rodentium [2] was “not directly impaired”. In the test on C. rodentium [1] (GF mice, 300 μg RA oral gavage q.d. prior to and during infection), the “Protection against C. rodentium (CFUs in stool)” value is reported as “sufficient to protect GF mice against C. rodentium”. Besides, in the test on C. rodentium [1] (Nos2−/− mice, exogenous RA), the “C. rodentium pathogen levels (CFUs in stool)” value is “did not alter pathogen levels”. Moreover, the “C. rodentium infection (CFUs in stool)” value is given as “decreased C. rodentium infection” in the test on C. rodentium [1] (WT mice, exogenous RA) and “decreased infection” in the test on C. rodentium [1] (control dnRAR^FF mice, RA-treatment). The “RA-induced protection against C. rodentium” value in the test with C. rodentium [1] (dnRAR^IEC mice, RA-treatment) is listed as “greatly reduced”.
In the case of `O=C(NCCCCCCCCNC(=O)C(Cl)Cl)C(Cl)Cl` [WIN18446], the “Mammalian ALDH enzymatic activity” value in the test with mammalian ALDH was “decreased mammalian ALDH enzymatic activity”. The “Basal Saa1/2 expression in intestinal organoids” value in the test with Saa1/2 is “decreased basal Saa1/2 expression”. Further, the “Downstream gene expression (relative mRNA in liver)” value in test [3] is listed as “decreased”. The “SFB levels in the intestine (SFB DNA in feces)” value in the test with SFB (following WIN18446 administration) was “similar”.
Consider `CC1=C(/C=C/C(C)=C/C=C/C(C)=C/CO)C(C)(C)CCC1` [retinol, all-trans retinol], for which the “bcALDH1A1 expression by B. cereus” value with bcALDH1A1 is given as “increased bcALDH1A1 expression”.
